By pEC50 is commonly meant the negative decadic logarithm of the EC50, by convention in mol/L.

Experimental findings from patent publication US8778923B2, “GLP-1 receptor modulators” (Receptos, Inc., priority 2011, dated 2014) are described below.

pEC50: −log10 of the molar value.

The target of this test is T1, GLP-1R (Homo sapiens, UniProt P43220).
T1 construct: host or cells: CRE-bla CHO-K1
T1 sequence (P43220 24-463): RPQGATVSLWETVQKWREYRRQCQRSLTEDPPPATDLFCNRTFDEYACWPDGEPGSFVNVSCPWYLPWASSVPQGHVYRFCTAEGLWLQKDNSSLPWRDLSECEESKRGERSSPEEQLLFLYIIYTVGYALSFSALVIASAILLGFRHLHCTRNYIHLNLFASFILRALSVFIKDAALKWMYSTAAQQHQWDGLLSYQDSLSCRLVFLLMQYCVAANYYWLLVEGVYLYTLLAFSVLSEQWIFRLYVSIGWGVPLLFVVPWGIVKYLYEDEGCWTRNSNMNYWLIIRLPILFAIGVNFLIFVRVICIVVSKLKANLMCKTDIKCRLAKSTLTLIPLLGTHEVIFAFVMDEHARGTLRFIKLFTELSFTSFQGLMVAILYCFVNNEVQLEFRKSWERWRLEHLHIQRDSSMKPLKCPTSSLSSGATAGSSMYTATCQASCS
T1 sequence (P01275 100-127 partner limits assumed): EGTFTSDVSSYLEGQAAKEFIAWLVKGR
Briefly: EC20 GLP-1(9-36) PAM cAMP assay: dose response of compound in the presence of fixed concentration of GLP-1(9-36). Format: cell-based. To be noted: GLP-1R CRE-bla CHO-K1 cells, compound dose response in presence of fixed concentration of GLP-1(9-36). On the procedure: EC20 GLP-1(9-36) PAM cAMP Assay: Dose Response of Compound in the Presence of Fixed Concentration of GLP-1 (9-36).
GLP-1R CRE-bla CHO-K1 cells cultured in growth medium (DMEM-High glucose, 10% dialyzed FBS, 0.1 mM NEAA, 25 mM Hepes, 100 U/mL penicillin/100 μg/mL streptomycin, 5 μg/mL Blasticidin, 600 μg/mL Hygromycin) were tryspsinized and plated in suspension into 384 well white flat bottom plates at 5000 cells/well in 12 μL assay buffer (Hanks Balanced Salt solution, 10 mM Hepes, 0.1% BSA, pH 7.4). A 5× compound dose response curve (12-point) was generated in assay buffer containing 1.5 mM IBMX, 12.5% DMSO. GLP-1(9-36) was diluted to 4.2 μM in assay buffer containing 1.5 mM IBMX and 12.5% DMSO. The 5× compound dose response was added (3 μL), followed by 0.5 μL of GLP-1(9-36) and cells were incubated for 30 min at 37° C. Direct detection of cAMP was carried out using DiscoveRx HitHunter cAMP kit according to manufacturer's instructions and luminescence was read using a SpectraMax M5 plate reader. Luminescence was converted to total cAMP using a cAMP standard curve and data was analyzed by non-linear regression to determine the EC50 and Emax.
GLP-1(7-36): […]-NH2. GLP-1(9-36): […]-NH2. GLP-1(7-36) was purchased from GenScript. GLP-1(9-36) was purchased from Biopeptide Co., Inc.
As to `CCCCCCCOc1ccc(-c2noc(-c3ccc(C[C@H](NC(=O)c4ccc(C(C)(C)C)cc4)C(=O)O)cc3)n2)cc1` [Compound 1, (S)-2-(4-(tert-butyl)benzamido)-3-(4-(3-(4-(heptyloxy)phenyl)-1,2,4-oxadiazol-5-yl)phenyl)propanoic acid], the pEC50 was 5.60 to 6.10. Consider `CCCCCCCOc1ccc(-c2nc(-c3ccc(C[C@H](NC(=O)c4ccc(C(C)(C)C)cc4)C(=O)O)cc3)no2)cc1` [Compound 2, (S)-2-(4-(tert-butyl)benzamido)-3-(4-(5-(4-(heptyloxy)phenyl)-1,2,4-oxadiazol-3-yl)phenyl)propanoic acid], for which the pEC50 is 5.30 to 5.60. In the case of `Cc1ccc(-c2ccc(-c3nc(-c4ccc(C[C@H](NC(=O)c5ccc(C(C)(C)C)cc5)C(=O)O)cc4)no3)cc2)cc1` [Compound 3], the pEC50 was 5.00 to 5.30. In the case of `CC(C)(C)c1ccc(C(=O)N[C@@H](Cc2ccc(-c3noc(-c4ccc(-c5ccccc5)cc4)n3)cc2)C(=O)O)cc1` [Compound 4], the pEC50 was 5.00 to 5.30. As to `CC(C)(C)c1ccc(C(=O)N[C@@H](Cc2ccc(-c3noc(-c4ccc(N5CCCCC5)cc4)n3)cc2)C(=O)O)cc1` [Compound 5], the pEC50 was 5.30 to 5.60. As to `CC1CCN(c2ccc(-c3nc(-c4ccc(C[C@H](NC(=O)c5ccc(C(C)(C)C)cc5)C(=O)O)cc4)no3)cc2)CC1` [Compound 6], the negative logarithm of the EC50 (pEC50) was 5.00 to 5.30.

As to `Cc1ccc(-c2nc(-c3ccc(C[C@H](NC(=O)c4ccc(C(C)(C)C)cc4)C(=O)O)cc3)no2)cc1` [Compound 7], the pEC50 is 5.00 to 5.30. As for `CC(C)(C)c1ccc(C(=O)N[C@@H](Cc2ccc(-c3noc(-c4ccc(C(C)(C)C)cc4)n3)cc2)C(=O)O)cc1` [Compound 8], the pEC50 is 5.60 to 6.10.

Turning to `COc1cc(C)ccc1-c1nc(-c2ccc(C[C@H](NC(=O)c3ccc(C(C)(C)C)cc3)C(=O)O)cc2)no1` [Compound 9], the pEC50 is 5.00 to 5.30. Regarding `CC(C)c1ccc(-c2nc(-c3ccc(C[C@H](NC(=O)c4ccc(C(C)(C)C)cc4)C(=O)O)cc3)no2)cc1` [Compound 10], the pEC50 was 5.30 to 5.60. As to `CC(C)(C)c1ccc(C(=O)N[C@@H](Cc2ccc(-c3noc(-c4ccc(C(F)(F)F)cc4)n3)cc2)C(=O)O)cc1` [Compound 11], the pEC50 is 5.60 to 6.10. As to `Cc1cccc(-c2ccc(-c3nc(-c4ccc(C[C@H](NC(=O)c5ccc(C(C)(C)C)cc5)C(=O)O)cc4)no3)cc2)c1` [Compound 13], the negative-log EC50 (pEC50) is 5.60 to 6.10. Regarding `Cc1ccccc1-c1ccc(-c2nc(-c3ccc(C[C@H](NC(=O)c4ccc(C(C)(C)C)cc4)C(=O)O)cc3)no2)cc1` [Compound 14], the pEC50 is 5.30 to 5.60.

Consider `COc1ccc(-c2ccc(-c3nc(-c4ccc(C[C@H](NC(=O)c5ccc(C(C)(C)C)cc5)C(=O)O)cc4)no3)cc2)cc1` [Compound 15], for which the pEC50 is 5.30 to 5.60. `CC(C)(C)c1ccc(C(=O)N[C@@H](Cc2ccc(-c3noc(-c4ccc(-c5ccc(Cl)cc5)cc4)n3)cc2)C(=O)O)cc1` [Compound 16]: the negative-log EC50 (pEC50) is 5.00 to 5.30. Next, `CC(C)(C)c1ccc(C(=O)N[C@@H](Cc2ccc(-c3noc(-c4ccc(-c5cccc(Cl)c5)cc4)n3)cc2)C(=O)O)cc1` [Compound 17]: 5.30 to 5.60; `CC(C)(C)c1ccc(C(=O)N[C@@H](Cc2ccc(-c3noc(-c4ccc(-c5ccccc5Cl)cc4)n3)cc2)C(=O)O)cc1` [Compound 18]: 5.60 to 6.10. Take `CC(C)(C)c1ccc(C(=O)N[C@@H](Cc2ccc(-c3noc(-c4ccc(-c5ccccc5F)cc4)n3)cc2)C(=O)O)cc1` [Compound 19]: the pEC50 is 5.60 to 6.10. Next, `CC(C)(C)c1ccc(C(=O)N[C@@H](Cc2ccc(-c3noc(-c4ccc(-c5cccc(F)c5)cc4)n3)cc2)C(=O)O)cc1` [Compound 20]: 5.60 to 6.10; `CC(C)(C)c1ccc(C(=O)N[C@@H](Cc2ccc(-c3noc(-c4ccc(-c5ccc(F)cc5)cc4)n3)cc2)C(=O)O)cc1` [Compound 21]: 5.30 to 5.60; `CC(C)(C)c1ccc(C(=O)N[C@@H](Cc2ccc(-c3noc(-c4ccc(-c5ccc(F)c(F)c5)cc4)n3)cc2)C(=O)O)cc1` [Compound 22]: 5.30 to 5.60.

Turning to `CC(C)(C)c1ccc(C(=O)N[C@@H](Cc2ccc(-c3noc(-c4ccc(-c5cc(F)ccc5F)cc4)n3)cc2)C(=O)O)cc1` [Compound 23], the pEC50 is 5.30 to 5.60. As to `CC(C)(C)c1ccc(C(=O)N[C@@H](Cc2ccc(-c3noc(-c4ccc(-c5ccc(F)cc5F)cc4)n3)cc2)C(=O)O)cc1` [Compound 24], the pEC50 is 5.60 to 6.10. Turning to `COc1ccc(-c2ccc(-c3nc(-c4ccc(C[C@H](NC(=O)c5ccc(C(C)(C)C)cc5)C(=O)O)cc4)no3)cc2)c(OC)c1` [Compound 25], the pEC50 was 5.60 to 6.10. Take `COc1cc(OC)cc(-c2ccc(-c3nc(-c4ccc(C[C@H](NC(=O)c5ccc(C(C)(C)C)cc5)C(=O)O)cc4)no3)cc2)c1` [Compound 26]: the pEC50 was 5.30 to 5.60. For `COc1cc(C(F)(F)F)ccc1-c1ccc(-c2nc(-c3ccc(C[C@H](NC(=O)c4ccc(C(C)(C)C)cc4)C(=O)O)cc3)no2)cc1` [Compound 27], the pEC50 is 5.60 to 6.10.

For the compound `CC(C)(C)c1ccc(C(=O)N[C@@H](Cc2ccc(-c3noc(-c4ccc(-c5cccc(C#N)c5)cc4)n3)cc2)C(=O)O)cc1` [Compound 28], the negative-log EC50 (pEC50) is 5.30 to 5.60. Regarding `CC(C)(C)c1ccc(C(=O)N[C@@H](Cc2ccc(-c3noc(-c4ccc(-c5ccc(C#N)cc5)cc4)n3)cc2)C(=O)O)cc1` [Compound 29], the pEC50 is 5.60 to 6.10. Take `COc1ccc(-c2ccc(-c3nc(-c4ccc(C[C@H](NC(=O)c5ccc(C(C)(C)C)cc5)C(=O)O)cc4)no3)cc2)cc1OC` [Compound 30]: the negative-log EC50 (pEC50) was 5.60 to 6.10. Take `CC(C)(C)c1ccc(C(=O)N[C@@H](Cc2ccc(-c3noc(-c4ccc(-c5ccccc5C#N)cc4)n3)cc2)C(=O)O)cc1` [Compound 31]: the pEC50 was 5.60 to 6.10. Next, `CC(C)(C)c1ccc(C(=O)N[C@@H](Cc2ccc(-c3noc(-c4ccc(N5CCCCC5)nc4)n3)cc2)C(=O)O)cc1` [Compound 32]: 5.00 to 5.30. `CC(C)Oc1ccc(-c2nc(-c3ccc(C[C@H](NC(=O)c4ccc(C(C)(C)C)cc4)C(=O)O)cc3)no2)cc1` [Compound 33]: the pEC50 is 5.30 to 5.60. Next, `CCCOc1ccc(-c2nc(-c3ccc(C[C@H](NC(=O)c4ccc(C(C)(C)C)cc4)C(=O)O)cc3)no2)cc1` [Compound 34]: 5.30 to 5.60. As for `CC(C)(C)c1ccc(C(=O)N[C@@H](Cc2ccc(-c3noc(-c4ccc(Oc5ccccc5)cc4)n3)cc2)C(=O)O)cc1` [Compound 35], the pEC50 is 5.30 to 5.60. Turning to `CC(C)(C)c1ccc(C(=O)N[C@@H](Cc2ccc(-c3noc(-c4ccc(OCc5ccccc5)cc4)n3)cc2)C(=O)O)cc1` [Compound 36], the negative logarithm of the EC50 (pEC50) is 5.30 to 5.60.

Regarding `COc1ccc(-c2nc(-c3ccc(C[C@H](NC(=O)c4ccc(C(C)(C)C)cc4)C(=O)O)cc3)no2)cc1OC` [Compound 37], the pEC50 is 5.30 to 5.60. In the case of `COc1cc(OC)cc(-c2nc(-c3ccc(C[C@H](NC(=O)c4ccc(C(C)(C)C)cc4)C(=O)O)cc3)no2)c1` [Compound 38], the negative-log EC50 (pEC50) is 5.60 to 6.10. Take `COc1cc(-c2nc(-c3ccc(C[C@H](NC(=O)c4ccc(C(C)(C)C)cc4)C(=O)O)cc3)no2)cc(OC)c1OC` [Compound 39]: the pEC50 was 5.60 to 6.10. In the case of `CSc1ccc(-c2nc(-c3ccc(C[C@H](NC(=O)c4ccc(C(C)(C)C)cc4)C(=O)O)cc3)no2)cc1` [Compound 40], the negative-log EC50 (pEC50) is 5.30 to 5.60. Consider `CC(C)(C)c1ccc(C(=O)N[C@@H](Cc2ccc(-c3noc(-c4ccc(S(C)(=O)=O)cc4)n3)cc2)C(=O)O)cc1` [Compound 41], for which the pEC50 is 5.30 to 5.60. For `CCSc1ccc(-c2nc(-c3ccc(C[C@H](NC(=O)c4ccc(C(C)(C)C)cc4)C(=O)O)cc3)no2)cc1` [Compound 42], the pEC50 was 5.30 to 5.60. Next, `CC(C)(C)c1ccc(C(=O)N[C@@H](Cc2ccc(-c3noc(-c4ccc(O)cc4)n3)cc2)C(=O)O)cc1` [Compound 43]: 5.30 to 5.60; `CC(=O)Nc1ccc(-c2nc(-c3ccc(C[C@H](NC(=O)c4ccc(C(C)(C)C)cc4)C(=O)O)cc3)no2)cc1` [Compound 44]: 5.30 to 5.60; `CC(=O)c1ccc(-c2nc(-c3ccc(C[C@H](NC(=O)c4ccc(C(C)(C)C)cc4)C(=O)O)cc3)no2)cc1` [Compound 45]: 5.60 to 6.10. As to `CCCc1ccc(-c2nc(-c3ccc(C[C@H](NC(=O)c4ccc(C(C)(C)C)cc4)C(=O)O)cc3)no2)cc1` [Compound 46], the pEC50 is 5.60 to 6.10.

`CN(C)c1ccc(-c2nc(-c3ccc(C[C@H](NC(=O)c4ccc(C(C)(C)C)cc4)C(=O)O)cc3)no2)cc1` [Compound 47]: the pEC50 is 5.30 to 5.60. For the compound `CCN(CC)c1ccc(-c2nc(-c3ccc(C[C@H](NC(=O)c4ccc(C(C)(C)C)cc4)C(=O)O)cc3)no2)cc1` [Compound 48], the negative-log EC50 (pEC50) was 5.00 to 5.30. As for `Cn1ccc2c(-c3nc(-c4ccc(C[C@H](NC(=O)c5ccc(C(C)(C)C)cc5)C(=O)O)cc4)no3)cccc21` [Compound 49], the negative logarithm of the EC50 (pEC50) was 5.00 to 5.30.

Take `Cn1ccc2cc(-c3nc(-c4ccc(C[C@H](NC(=O)c5ccc(C(C)(C)C)cc5)C(=O)O)cc4)no3)ccc21` [Compound 50]: the pEC50 is 5.30 to 5.60.
